Test results: article PMC11862924, “Phenylpyrazoles as Inhibitors of the m^6A RNA-Binding Protein YTHDF2” (JACS Au, 2025)
“Also recorded” adds a separate entry of the source.

Experiments:
YTHDF3 = target: T1, YTHDF3 (Homo sapiens, UniProt Q7Z739); experiment: EMSA with YTHDF3; assay type: binding; details: m6A RNA 20 nM
T1 construct: YTHDF3 (residues 391–585); made in house; host or cells: Escherichia coli BL21(DE3); plasmid from the Zhou lab (Boston College)
T1 sequence (Q7Z739 391-585): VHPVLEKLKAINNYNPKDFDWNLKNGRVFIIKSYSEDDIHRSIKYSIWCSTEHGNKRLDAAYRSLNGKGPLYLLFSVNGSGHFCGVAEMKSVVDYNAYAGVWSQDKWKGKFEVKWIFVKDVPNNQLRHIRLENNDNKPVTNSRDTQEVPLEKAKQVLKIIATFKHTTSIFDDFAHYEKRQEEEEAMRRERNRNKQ
Procedure: (§1) Compounds with different concentrations (3.1–100 μM) were incubated with 250 nM YTH-domain and 20 nM FAM-17mer-RNA in a buffer containing 20 mM HEPES, pH 8.2, 50 mM NaCl, 0.05% Triton X-100, and 5% v/v glycerol for 20 min at 4 °C. The samples were subjected to 12% native polyacrylamide gel and run at 120 V for 90 min at 4 °C using 0.5× TBE buffer. Gel imaging was performed in ChemiDoc MP (Bio-Rad), and Cy2/Alexa488 fluorescence was detected with a 1-min exposure time. Quantification of the gel image was performed by ImageJ.
Figure S13. The EMSA of YTHDF3 binding to the m 6A RNA substrate. (A) The YTHDF 3–RNA
complex formation in EMSA using m 6A RNA (20 nM) and different concentrations of YTHDF1 . (B)
(§2) (1 picture or pasted object on this page, not shown here)

YTHDF1 = target: T2, YTHDF1 (Homo sapiens, UniProt Q9BYJ9); experiment: EMSA with YTHDF1; assay type: binding; details: m6A RNA 20 nM
T2 construct: Plasmids of the YTH domain of YTHDF1 (residues 375–552); made in house; host or cells: Escherichia coli BL21(DE3); plasmid from the Zhou lab (Boston College)
T2 sequence (Q9BYJ9 375-552): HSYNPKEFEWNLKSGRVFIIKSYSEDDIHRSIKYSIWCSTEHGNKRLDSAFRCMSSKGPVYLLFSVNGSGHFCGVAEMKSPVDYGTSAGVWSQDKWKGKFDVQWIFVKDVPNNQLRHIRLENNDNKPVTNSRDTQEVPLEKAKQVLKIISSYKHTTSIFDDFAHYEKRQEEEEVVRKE
Procedure: as §1
Figure S12. The EMSA of YTHDF1 binding to the m6A RNA substrate. (A) The YTHDF1–RNA
complex formation in EMSA using m6A RNA (20 nM) and different concentrations of YTHDF1 . (B)
consistent results with that of FP.
as §2

[1] = target: T3, YTHDC1 (residues 345-509) (Homo sapiens, UniProt Q96MU7); experiment: FP assay with YTH domain of YTHDC1; assay type: binding; details: 2.0 µM YTHDC1
T3 construct: YTHDC1 (residues 345–509); made in house; host or cells: Escherichia coli BL21(DE3); plasmid from the Zhou lab (Boston College)
Procedure: (§3) The FP assay was performed in 384-well black plates (Corning no. 4514) with a total reaction volume of 15 μL. The final concentrations of protein (YTHDF2) and RNA were […], respectively, in a buffer containing 20 mM HEPES/KOH pH 7.5, 50 mM NaCl, 0.005% Tween 20, and 1 mM GSH (DTT). Compounds were incubated with protein, added FAM-m^6A RNA probe ([…](m6)ACUGUG) (purchased from IDT), and incubated at 4 °C for 30 min. The fluorescence polarization was measured using a plate reader (TECAN Spark) under an excitation wavelength of 485 nm and an emission wavelength of 535 nm with a bandwidth of 20 nm. […] The data were determined using GraphPad Prism 9.
Figure S10. The FP assay of YTHDC1 binding to the m6A RNA substrate. (A) The purification of YTHDC1 (residues 345-509), molecular weight: 19.9 kDa. (B) The anisotropy values using different concentrations of YTHDC1 with the m6A RNA probe (4 nM), which was used to decide the appropriate […] concentration for the FP (2.0 µM of YTHDC1, Z-factor: 0.54). (C) CK- […]
as §2

[2] = target: T4, YTHDF3 (residues 391-585) (Homo sapiens, UniProt Q7Z739); experiment: FP assay with YTH domain of YTHDF3; assay type: binding; details: 2.0 µM YTHDF3
T4 construct: YTHDF3 (residues 391–585); made in house; host or cells: Escherichia coli BL21(DE3); plasmid from the Zhou lab (Boston College)
T4 sequence (Q7Z739 391-585): T1 sequence (Q7Z739 391-585)
Procedure: as §3
Figure S9. The FP assay of YTHDF3 binding to the m6A RNA substrate. (A) The purification of YTHDF3 (residues 391-585), molecular weight: 24.1 kDa. (B) The anisotropy values using different concentrations of YTHDF3 with the m6A RNA probe (4 nM), which was used to decide the appropriate […] concentration for the FP (2.0 µM of YTHDF3, Z-factor: 0.55). (C) The […]
as §2

YTHDF2 = target: T5, YTHDF2 (Homo sapiens, UniProt Q9Y5A9); experiment: nanoDSF thermal shift assay; assay type: binding; details: for ΔTm at 5 µM: 5 μM compound; for ΔTm at 10 µM: 10 μM compound
T5 construct: A YTHDF2 YTH domain construct (residues 383–553) was subcloned to a pOPIN plasmid; made in house; host or cells: Escherichia coli BL21(DE3)
T5 sequence (Q9Y5A9 383-553): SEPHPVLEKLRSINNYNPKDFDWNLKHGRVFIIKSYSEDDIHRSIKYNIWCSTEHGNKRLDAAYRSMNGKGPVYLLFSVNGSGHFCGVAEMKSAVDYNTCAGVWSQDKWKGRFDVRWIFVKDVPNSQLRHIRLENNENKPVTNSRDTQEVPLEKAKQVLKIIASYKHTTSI
Procedure: NanoDSF was measured on a NanoTemper instrument (Prometheus NT.48). YTHDF2 protein was used at a concentration of 5 μM and incubated with 50, 25, 10, and 5 μM compound in buffer (100 mM KPi, pH 7.0, 250 mM NaCl, 10% Glycerol) for 50 min, in which 0.1% DMSO was used as the reference. The heat rate was set to 1 °C per minute, measured in a range between 20 and 90 °C.

[3] = target: T6, YTHDF2 (residues 383–553) (Homo sapiens, UniProt Q9Y5A9); experiment: Fluorescence polarization (FP) assay, YTHDF2–m6A RNA interaction; assay type: binding; details: for inhibition at 100 µM / inhibition at 100 μM in the FP assay: 100 μM compound, YTHDF2 (residues 383–553, 20 nM), FAM-labeled m6A RNA probe 5 nM, average ± SD; for inhibitory IC50 in FP (in words): YTHDF2–m6A RNA interaction, Figure S2
T6 construct: A YTHDF2 YTH domain construct (residues 383–553) was subcloned to a pOPIN plasmid; made in house; host or cells: Escherichia coli BL21(DE3)
T6 sequence (Q9Y5A9 383-553): T5 sequence (Q9Y5A9 383-553)
In short: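 Read-out is fluorescence polarization (485 nm excitation, 535 nm emission) after 30 min at 4 °C. Buffer: 20 mM HEPES/KOH pH 7.5, 50 mM NaCl, 0.005% Tween 20, 1 mM GSH (DTT); YTHDF2 at 20 nM was exposed to compound first, then FAM-m6A RNA probe added at 5 nM.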

K562 = experiment: CCK-8 proliferation assay, K562; assay type: cell-based; details: Homo sapiens, CCK-8 kit assay, triplicates, 72 h, read-out: Anti-proliferation activity against cancer cells (IC50), K562
Procedure: The JAR, K562, HCT116, and MOLM13 cells were seeded in 96-well plates (3000 cells/well). After being cultured overnight, compounds were added together with the DMSO treatment (0.1%) as a control. After 72 h, CCK-8 solution (Vazyme, A311) was added, and the cells were incubated at 37 °C for 4 h. The absorbance was measured at 450 nm using a plate reader (TECAN Spark).

SMILES | inhibition of m6A RNA binding to YTHDF3 in EMSA (in words) (YTHDF3) | inhibition of m6A RNA binding to YTHDF1 in EMSA (in words) (YTHDF1) | inhibitory activity against YTHDC1 in FP (in words) [1] | inhibitory activity against YTHDF3 in FP (in words) [2] | ΔTm at 5 µM (YTHDF2) [°C] | ΔTm at 10 µM (YTHDF2) [°C] | ΔTm at 25 µM (YTHDF2; 25 μM compound) [°C] | inhibition at 100 µM [3] [%] | inhibition at 100 μM in the FP assay [3] [%] | inhibitory IC50 in FP (in words) [3] | IC50 (K562) [µM] | inhibition at 100 µM ([2]; read-out: inhibition of YTHDF3 at 100 μM in FP, 100 μM compound) [%]
O=C(O)c1ccc(-n2cc(C(=O)c3c(O)ccc4ccccc34)cn2)cc1 [CK-75] | did not show detectable inhibitory activity; also recorded: did not show detectable inhibition | did not show detectable inhibition | did not show detectable inhibitory activity; also recorded: inactive | inactive | – | – | – | – | – | – | – | –
O=C(O)c1ccc(-n2cc(C(=O)c3cc(Cl)cc(Cl)c3O)cn2)cc1 [CK-61] | did not show detectable inhibitory activity; also recorded: no activity | minimal inhibition | did not show detectable inhibitory activity | – | 0.94 ± 0.58 | 1.56 ± 0.41 | 3.21 | > 70 | 81.4 ± 10.7 | low double-digit micromolar | > 50 | 12.4
Cc1cc(O)c(C(=O)c2cnn(-c3ccc(C(=O)O)cc3)c2)cc1Cl [CK-79] | did not show detectable inhibitory activity; also recorded: did not show detectable inhibition | did not show detectable inhibition | did not show detectable inhibitory activity; also recorded: inactive | – | 0.96 ± 0.08 | 1.39 ± 0.37 | – | > 70 | 70.3 ± 5.1 | low double-digit micromolar | 28.1 ± 1.6 | –
